We go through 1 compound from paper PMC11880180, “Theranostic Near-Infrared Monoamine Oxidase Inhibitor (NMI) Protein Binding Interactions with MAOA and Albumin” (Pharmaceutical Research, 2025).

The test concerns the target T1, MAOA (monoamine oxidase A) (Homo sapiens, UniProt P21397).
T1 construct: recombinant human MAOA (M7316-1VL)
T1 sequence (P21397 1-527): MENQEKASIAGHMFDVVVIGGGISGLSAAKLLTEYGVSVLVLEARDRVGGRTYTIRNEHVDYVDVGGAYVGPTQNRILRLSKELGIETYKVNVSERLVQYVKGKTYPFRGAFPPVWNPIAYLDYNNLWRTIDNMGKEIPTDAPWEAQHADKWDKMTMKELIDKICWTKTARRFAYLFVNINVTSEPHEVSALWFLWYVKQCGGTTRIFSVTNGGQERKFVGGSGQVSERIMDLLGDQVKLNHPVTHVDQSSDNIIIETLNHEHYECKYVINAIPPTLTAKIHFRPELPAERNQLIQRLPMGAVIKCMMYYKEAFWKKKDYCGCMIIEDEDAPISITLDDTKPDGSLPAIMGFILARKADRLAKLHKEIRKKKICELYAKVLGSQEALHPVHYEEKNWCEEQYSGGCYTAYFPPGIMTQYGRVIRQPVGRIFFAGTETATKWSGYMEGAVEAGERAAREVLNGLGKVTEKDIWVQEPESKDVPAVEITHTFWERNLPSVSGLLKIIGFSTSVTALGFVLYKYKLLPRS
The test can be described thus: MAO-Glo activity assay with recombinant MAOA (IC50 […] in PEG, […] in PBS); fluorescent SDS-PAGE band of pure protein. The test is classed as biochemical.

`C#CCN(CCCNC(=O)CCCCC[N+]1=C(/C=C/C2=C(Cl)C(=C/C=C3\N(CCCCCC(=O)[O-])c4ccccc4C3(C)C)/CCC2)C(C)(C)c2ccccc21)CCCOc1ccc(Cl)cc1Cl` [NMI]: the IC50 is 1.6 µM.

In general, IC50 refers to the point on the concentration scale where inhibition reaches its midpoint.
